Source: patent US20140187784A1, “RADIOACTIVE QUINOLINONE DERIVATIVE AND PHARMACEUTICAL DRUG COMPRISING THE SAME” (Nihon Medi-Physics Co., Ltd., priority 2012, published 2014)
One block for each molecule: values may come before it.

Assays:
[1] = target: T1, CYP11B2 (Homo sapiens, UniProt P19099); test: Inhibition of aldosterone production in V79-B2 cells expressing human CYP11B2 (ELISA); assay type: cell-based; parameters: expressed in transfected cells; host or cells: Chinese hamster lung-derived fibroblast V79 cells (V79-B2); conditions: for Selectivity factor: IC50 against cortisol production/IC50 against aldosterone production, selectivity factor for CYP11B2; for IC50: V79-B2 cells, corticosterone 100 nmol/L, 4 hours, unlabeled form, read-out: IC50 against aldosterone production; for selectivity factor compared with IMTO: selectivity factor for CYP11B2, Table 6
T1 sequence (P19099 25-503): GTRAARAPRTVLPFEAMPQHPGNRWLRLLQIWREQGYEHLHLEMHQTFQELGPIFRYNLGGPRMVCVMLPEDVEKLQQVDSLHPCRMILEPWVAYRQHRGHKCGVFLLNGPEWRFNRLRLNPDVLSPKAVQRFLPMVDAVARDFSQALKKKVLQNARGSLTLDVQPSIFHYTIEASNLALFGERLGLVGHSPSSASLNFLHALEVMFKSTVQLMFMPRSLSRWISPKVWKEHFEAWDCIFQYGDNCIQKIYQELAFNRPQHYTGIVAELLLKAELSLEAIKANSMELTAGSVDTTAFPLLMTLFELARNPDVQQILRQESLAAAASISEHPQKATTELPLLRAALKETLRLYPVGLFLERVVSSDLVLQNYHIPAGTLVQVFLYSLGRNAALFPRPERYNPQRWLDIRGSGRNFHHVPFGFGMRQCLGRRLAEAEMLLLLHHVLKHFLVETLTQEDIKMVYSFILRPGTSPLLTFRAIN
Protocol: (§1) Chinese hamster lung-derived fibroblast V79 cells (obtained from European Collection of Cell Cultures (ECACC) via DS Pharma Biomedical Co., Ltd.) were allowed to express human CYP11B2 and human CYP11B1 to prepare V79-B2 and V79-B1, respectively. V79-B2 or V79-B1 was inoculated to a microplate and cultured overnight. Then, corticosterone and 11-deoxycortisol were added at final concentrations of 100 nmol/L into the culture supernatants of V79-B2 and V79-B1, respectively. At the same time, iodometomidate (IMTO) or the unlabeled form of PAY15, PAY21, PAY27, or PAY54 synthesized in Example 2, 5, 8, or 12 was added at a final concentration of 10^−4 to 10^3 nmol/L into the culture supernatants. One hour later, the culture supernatant of V79-B1 was recovered, and the concentration of cortisol, which is a metabolite of CYP11B1, was measured by enzyme-linked immunosorbent assay (ELISA). Four hours later, the culture supernatant of V79-B2 was recovered, and the concentration of aldosterone, which is a metabolite of CYP11B2, was measured by ELISA. […] IC50 against cortisol production/IC50 against aldosterone production was calculated and used as a selectivity factor for CYP11B2.

[2] = target: T2, human CYP11B1 (Homo sapiens, UniProt P15538); test: Inhibition of cortisol production in V79-B1 cells expressing human CYP11B1 (ELISA); assay type: cell-based; conditions: 11-deoxycortisol 100 nmol/L, 1 hour, unlabeled form, read-out: IC50 against cortisol production
T2 construct: expressed in transfected cells; host or cells: Chinese hamster lung-derived fibroblast V79 cells (V79-B1)
T2 sequence (P15538 25-503): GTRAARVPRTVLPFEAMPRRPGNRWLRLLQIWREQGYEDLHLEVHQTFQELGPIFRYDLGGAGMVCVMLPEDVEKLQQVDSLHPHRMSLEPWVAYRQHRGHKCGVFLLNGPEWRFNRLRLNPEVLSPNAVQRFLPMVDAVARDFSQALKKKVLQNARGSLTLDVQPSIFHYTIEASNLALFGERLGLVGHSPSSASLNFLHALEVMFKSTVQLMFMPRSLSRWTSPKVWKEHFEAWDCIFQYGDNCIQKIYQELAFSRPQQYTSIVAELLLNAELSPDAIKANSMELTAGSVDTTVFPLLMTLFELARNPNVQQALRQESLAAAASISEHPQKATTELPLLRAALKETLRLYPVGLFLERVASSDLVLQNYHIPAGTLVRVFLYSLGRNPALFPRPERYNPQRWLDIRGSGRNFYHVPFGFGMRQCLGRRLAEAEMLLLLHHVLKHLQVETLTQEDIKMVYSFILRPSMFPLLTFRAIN
Protocol: as §1

[3] = Pharmacokinetic and distribution experiment (radioactivity in blood and excised organs after tail vein injection); assay type: in vivo; conditions: ddy mice; for Adrenal gland/Blood ratio / Adrenal gland/Kidney ratio / Adrenal gland/Liver ratio / Radioactivity Distribution, Adrenal gland / Radioactivity Distribution, Blood / Radioactivity Distribution, Heart / Radioactivity Distribution, Kidney / Radioactivity Distribution, Large intestine / Radioactivity Distribution, Liver / Radioactivity Distribution, Lung / Radioactivity Distribution, Pancreas / Radioactivity Distribution, Small intestine / Radioactivity Distribution, Spleen / Radioactivity Distribution, Stomach / Radioactivity Distribution, Thyroid: tail vein injection, 18.5 kBq (0.5 μCi)
Protocol: (§2) The HPLC fraction of [^125I]PAY15 obtained in Example 3 was concentrated and then diluted with saline. The resulting solution was used in administration. 100 μL of the solution (18.5 kBq (0.5 μCi)) was injected to the tail vein of each of five ddy mice (6 weeks old). Five minutes later, each mouse was decapitated, and blood was collected. Then, organs (adrenal gland, pancreas, heart, lung, stomach, small intestine, large intestine, liver, spleen, kidney, and thyroid gland) were excised. After measurement of their weights, the radioactivities of blood and each excised organ were measured. Also, the point in time when each mouse was decapitated was changed to 5, 15, 30, 60, and 120 minutes later to perform similar operation.
The HPLC fraction of [^125I]PAY21 obtained in Example 6 was concentrated and then diluted with saline. The resulting solution was used in administration to perform the same operation as in Evaluation 1.
as §2, with “[^18F]PAY27 obtained” for “The HPLC fraction of [^125I]PAY15 obtained”, “Example 10” for “Example 3”, “was” for “was concentrated and then”, “solution (14.8” for “solution (18.5”, “kBq (4” for “kBq (0.5”, “and thigh bone)” for “and thyroid gland)”
as §2, with “[^18F]PAY54 obtained” for “The HPLC fraction of [^125I]PAY15 obtained”, “Example 13” for “Example 3”, “was” for “was concentrated and then”, “solution (14.8” for “solution (18.5”, “kBq (4” for “kBq (0.5”, “and thigh bone)” for “and thyroid gland)”

Compound: O=C1CCc2cc(-c3cncc(I)c3)cc3c2N1CC3 [PAY21, 8-(5-iodopyridin-3-yl)-1,2,5,6-tetrahydro-4H-pyrrolo[3,2,1-ij]quinolin-4-one]
Selectivity factor [1]: 26.09
IC50 [1]: 0.81 nM
selectivity factor compared with IMTO [1]: higher than that of IMTO
IC50 [2]: 21.1 nM

Compound: O=C1CCc2cc(-c3cncc(I)c3)cc3c2N1CCC3 [PAY15, 9-(5-iodopyridin-3-yl)-1,2,6,7-tetrahydro-5H-pyrido[3,2,1-ij]quinolin-3-one]
Selectivity factor [1]: 223.95
IC50 [1]: 0.63 nM
selectivity factor compared with IMTO [1]: higher than that of IMTO
IC50 [2]: 141 nM

Compound: O=C1CCc2cc(-c3cncc([125I])c3)cc3c2N1CCC3 [[^125I]PAY15, 9-(5-[^125I]iodopyridin-3-yl)-1,2,6,7-tetrahydro-5H-pyrido[3,2,1-ij]quinolin-3-one]
radioactivity accumulation in the adrenal gland compared with blood and periadrenal tissues ([3]; at an early stage after administration): high radioactivity accumulation
Adrenal gland/Blood ratio ([3]; 5 min): 1.74 ± 0.12
Adrenal gland/Kidney ratio ([3]; 5 min): 1.42 ± 0.03
Adrenal gland/Liver ratio ([3]; 5 min): 1.70 ± 0.23
Radioactivity Distribution, Adrenal gland ([3]; 5 min): 8.7 ± 1.7 % dose/g
Radioactivity Distribution, Blood ([3]; 5 min): 5.0 ± 1.2 % dose/g
Radioactivity Distribution, Heart ([3]; 5 min): 3.6 ± 0.8 % dose/g
Radioactivity Distribution, Kidney ([3]; 5 min): 6.1 ± 1.2 % dose/g
Radioactivity Distribution, Large intestine ([3]; 5 min): 1.9 ± 0.8 % dose/g
Radioactivity Distribution, Liver ([3]; 5 min): 5.1 ± 1.1 % dose/g
Radioactivity Distribution, Lung ([3]; 5 min): 7.4 ± 1.6 % dose/g
Radioactivity Distribution, Pancreas ([3]; 5 min): 4.0 ± 0.9 % dose/g
Radioactivity Distribution, Small intestine ([3]; 5 min): 3.7 ± 0.9 % dose/g
Radioactivity Distribution, Spleen ([3]; 5 min): 4.1 ± 0.8 % dose/g
Radioactivity Distribution, Stomach ([3]; 5 min): 3.5 ± 1.2 % dose/g
Radioactivity Distribution, Thyroid ([3]; 5 min): 71.6 ± 50.0 % dose/g
Adrenal gland/Blood ratio ([3]; 15 min): 1.18 ± 0.15
Adrenal gland/Kidney ratio ([3]; 15 min): 1.24 ± 0.17
Adrenal gland/Liver ratio ([3]; 15 min): 1.81 ± 0.07
Radioactivity Distribution, Adrenal gland ([3]; 15 min): 7.3 ± 3.9 % dose/g
Radioactivity Distribution, Blood ([3]; 15 min): 4.9 ± 0.3 % dose/g
Radioactivity Distribution, Heart ([3]; 15 min): 2.6 ± 0.5 % dose/g
Radioactivity Distribution, Kidney ([3]; 15 min): 4.5 ± 0.4 % dose/g
Radioactivity Distribution, Large intestine ([3]; 15 min): 1.8 ± 0.2 % dose/g
Radioactivity Distribution, Liver ([3]; 15 min): 3.0 ± 0.3 % dose/g
Radioactivity Distribution, Lung ([3]; 15 min): 4.9 ± 0.3 % dose/g
Radioactivity Distribution, Pancreas ([3]; 15 min): 2.8 ± 0.1 % dose/g
Radioactivity Distribution, Small intestine ([3]; 15 min): 4.6 ± 0.9 % dose/g
Radioactivity Distribution, Spleen ([3]; 15 min): 3.2 ± 0.3 % dose/g
Radioactivity Distribution, Stomach ([3]; 15 min): 12.1 ± 2.0 % dose/g
Radioactivity Distribution, Thyroid ([3]; 15 min): 349.4 ± 115.9 % dose/g
Adrenal gland/Blood ratio ([3]; 30 min): 0.74 ± 0.40
Adrenal gland/Kidney ratio ([3]; 30 min): 0.75 ± 0.20
Adrenal gland/Liver ratio ([3]; 30 min): 1.82 ± 0.53
Radioactivity Distribution, Adrenal gland ([3]; 30 min): 2.3 ± 1.2 % dose/g
Radioactivity Distribution, Blood ([3]; 30 min): 3.1 ± 0.3 % dose/g
Radioactivity Distribution, Heart ([3]; 30 min): 1.3 ± 0.1 % dose/g
Radioactivity Distribution, Kidney ([3]; 30 min): 3.5 ± 0.9 % dose/g
Radioactivity Distribution, Large intestine ([3]; 30 min): 1.6 ± 0.2 % dose/g
Radioactivity Distribution, Liver ([3]; 30 min): 1.5 ± 0.2 % dose/g
Radioactivity Distribution, Lung ([3]; 30 min): 3.6 ± 1.6 % dose/g
Radioactivity Distribution, Pancreas ([3]; 30 min): 1.7 ± 0.1 % dose/g
Radioactivity Distribution, Small intestine ([3]; 30 min): 4.0 ± 0.4 % dose/g
Radioactivity Distribution, Spleen ([3]; 30 min): 2.2 ± 0.3 % dose/g
Radioactivity Distribution, Stomach ([3]; 30 min): 25.0 ± 6.4 % dose/g
Radioactivity Distribution, Thyroid ([3]; 30 min): 486.5 ± 245.4 % dose/g
Adrenal gland/Blood ratio ([3]; 60 min): 0.82 ± 0.16
Adrenal gland/Kidney ratio ([3]; 60 min): 0.84 ± 0.21
Adrenal gland/Liver ratio ([3]; 60 min): 1.90 ± 0.47
Radioactivity Distribution, Adrenal gland ([3]; 60 min): 1.7 ± 1.3 % dose/g
Radioactivity Distribution, Blood ([3]; 60 min): 2.9 ± 0.2 % dose/g
Radioactivity Distribution, Heart ([3]; 60 min): 1.0 ± 0.0 % dose/g
Radioactivity Distribution, Kidney ([3]; 60 min): 2.7 ± 0.6 % dose/g
Radioactivity Distribution, Large intestine ([3]; 60 min): 1.7 ± 0.5 % dose/g
Radioactivity Distribution, Liver ([3]; 60 min): 1.2 ± 0.1 % dose/g
Radioactivity Distribution, Lung ([3]; 60 min): 2.4 ± 0.1 % dose/g
Radioactivity Distribution, Pancreas ([3]; 60 min): 1.5 ± 0.1 % dose/g
Radioactivity Distribution, Small intestine ([3]; 60 min): 4.0 ± 0.4 % dose/g
Radioactivity Distribution, Spleen ([3]; 60 min): 1.6 ± 0.2 % dose/g
Radioactivity Distribution, Stomach ([3]; 60 min): 31.3 ± 11.2 % dose/g
Radioactivity Distribution, Thyroid ([3]; 60 min): 1298.8 ± 729.1 % dose/g
Adrenal gland/Blood ratio ([3]; 120 min): 0.86 ± 0.46
Adrenal gland/Kidney ratio ([3]; 120 min): 0.87 ± 0.42
Adrenal gland/Liver ratio ([3]; 120 min): 0.73 ± 0.42
Radioactivity Distribution, Adrenal gland ([3]; 120 min): 2.1 ± 1.4 % dose/g
Radioactivity Distribution, Blood ([3]; 120 min): 2.3 ± 0.5 % dose/g
Radioactivity Distribution, Heart ([3]; 120 min): 0.8 ± 0.2 % dose/g
Radioactivity Distribution, Kidney ([3]; 120 min): 2.7 ± 1.6 % dose/g
Radioactivity Distribution, Large intestine ([3]; 120 min): 2.4 ± 1.0 % dose/g
Radioactivity Distribution, Liver ([3]; 120 min): 1.0 ± 0.2 % dose/g
Radioactivity Distribution, Lung ([3]; 120 min): 2.0 ± 0.4 % dose/g
Radioactivity Distribution, Pancreas ([3]; 120 min): 1.3 ± 0.3 % dose/g
Radioactivity Distribution, Small intestine ([3]; 120 min): 3.0 ± 0.6 % dose/g
Radioactivity Distribution, Stomach ([3]; 120 min): 27.4 ± 5.2 % dose/g
Radioactivity Distribution, Thyroid ([3]; 120 min): 1400.6 ± 695.3 % dose/g

Second part, the molecule after the results:

Selectivity factor [1]: 55.49
IC50 [1]: 0.24 nM
selectivity factor compared with IMTO [1]: higher than that of IMTO
IC50 [2]: 13.1 nM
Compound: O=C1CCc2cc(-c3cncc(OCCF)c3)cc3c2N1CC3 [PAY54, 8-(5-(2-fluoroethyloxy)pyridin-3-yl)-1,2,5,6-tetrahydro-4H-pyrrolo[3,2,1-ij]quinolin-4-one]

Selectivity factor [1]: 81.42
IC50 [1]: 0.97 nM
selectivity factor compared with IMTO [1]: higher than that of IMTO
IC50 [2]: 78.6 nM
Compound: O=C1CCc2cc(-c3cncc(OCCF)c3)cc3c2N1CCC3 [PAY27, 9-(5-(2-fluoroethyloxy)pyridin-3-yl)-1,2,6,7-tetrahydro-5H-pyrido[3,2,1-ij]quinolin-3-one]
